# ChEMBL document CHEMBL4420076, “Amylin and calcitonin receptor agonist” (2017)
# Numbered stars: 1 amine (or outer) side, 2 acyl side, 3 side chain; on linkers, the order of the positions; unused ones are H or OH. Peptide text beside a SMILES is read from it. * marks the point of attachment. C20 diacid = O=C(O)CCCCCCCCCCCCCCCCCCC(=O)*; γGlu = O=C(O)[C@H](CCC(=O)[*:2])N[*:1]
# Experiments:
# [1] = biological target: T1, Amylin receptor AMY3; CALCR/RAMP3 (Homo sapiens, UniProt O60896+P30988); assay: Agonist activity at human amylin receptor expressed in BHK570 cells co-expressing RAMP3 assessed as increase in intracellular cAMP concentration incubated for 3 hrs in absence of albumin by CRE luciferase reporter gene assay; assay type: functional, cell-based
# T1 sequence (P30988 whole entry): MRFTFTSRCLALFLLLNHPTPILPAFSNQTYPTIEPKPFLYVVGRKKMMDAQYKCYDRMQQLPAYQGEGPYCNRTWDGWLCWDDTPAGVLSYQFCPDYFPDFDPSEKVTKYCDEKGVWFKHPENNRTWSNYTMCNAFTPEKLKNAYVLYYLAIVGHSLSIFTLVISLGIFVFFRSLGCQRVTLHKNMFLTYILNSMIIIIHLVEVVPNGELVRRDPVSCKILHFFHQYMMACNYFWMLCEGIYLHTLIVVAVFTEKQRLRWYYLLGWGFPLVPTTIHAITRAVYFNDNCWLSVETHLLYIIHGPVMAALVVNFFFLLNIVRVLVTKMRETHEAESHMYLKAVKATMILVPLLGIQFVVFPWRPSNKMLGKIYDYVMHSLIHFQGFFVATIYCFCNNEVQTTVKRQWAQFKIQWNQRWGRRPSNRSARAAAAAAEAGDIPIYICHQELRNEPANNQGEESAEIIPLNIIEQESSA
# T1 sequence (O60896 whole entry): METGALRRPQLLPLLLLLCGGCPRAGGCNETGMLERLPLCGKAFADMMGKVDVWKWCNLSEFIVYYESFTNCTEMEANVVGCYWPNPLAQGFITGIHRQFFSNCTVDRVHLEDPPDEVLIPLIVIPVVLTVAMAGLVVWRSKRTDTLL
# [2] = biological target: T2, Calcitonin receptor (Homo sapiens, UniProt P30988); assay: Agonist activity at human calcitonin receptor expressed in BHK570 cells assessed as increase in intracellular cAMP concentration incubated for 3 hrs in absence of albumin by CRE luciferase reporter gene assay; assay type: functional, cell-based
# T2 sequence (P30988 whole entry): T1 sequence (P30988 whole entry)
# [3] = biological target: T1, Amylin receptor AMY3; CALCR/RAMP3; assay: Agonist activity at human amylin receptor expressed in BHK570 cells co-expressing RAMP3 assessed as increase in intracellular cAMP concentration incubated for 3 hrs in presence of 10% FBS by CRE luciferase reporter gene assay; assay type: functional, cell-based
# [4] = biological target: T2, Calcitonin receptor; assay: Agonist activity at human calcitonin receptor expressed in BHK570 cells assessed as increase in intracellular cAMP concentration incubated for 3 hrs in presence of 10% FBS by CRE luciferase reporter gene assay; assay type: functional, cell-based
# [5] = Stability in pH 7.5 buffer assessed as lag time for fibril formation at 1 uM by Thioflavin T based fluorescence assay; assay type: physicochemical; details: pH 7.5, 1 µM
# [6] = Stability in pH 7.5 buffer assessed as compound recovery at 1 uM by Thioflavin T based fluorescence assay; assay type: physicochemical; details: read-out: Drug recovery
# [7] = Solubility in 100 mM glycylglycine buffer at pH 3.0 incubated for 18 hrs by UPLC analysis; assay type: physicochemical
# [8] = Solubility in 100 mM glycylglycine buffer at pH 4.0 incubated for 18 hrs by UPLC analysis; assay type: physicochemical
# [9] = Solubility in 100 mM bistrispropane buffer at pH 6.0 incubated for 18 hrs by UPLC analysis; assay type: physicochemical
# [10] = Solubility in 100 mM bistrispropane buffer at pH 6.5 incubated for 18 hrs by UPLC analysis; assay type: physicochemical
# [11] = Solubility in 100 mM bistrispropane buffer at pH 7.0 incubated for 18 hrs by UPLC analysis; assay type: physicochemical
# [12] = Solubility in 100 mM bistrispropane buffer at pH 7.5 incubated for 18 hrs by UPLC analysis; assay type: physicochemical
# [13] = Solubility in 100 mM bistrispropane buffer at pH 8.0 incubated for 18 hrs by UPLC analysis; assay type: physicochemical
# [14] = biological target: T2, Calcitonin receptor; assay: Displacement of [125I]-labeled human calcitonin from human calcitonin receptor expressed in BHK tkts13 cell membranes incubated for 1 hr by scintillation proximity assay
# [15] = biological target: T3, Amylin receptor AMY3; CALCR/RAMP3 (Rattus norvegicus, UniProt P32214+Q9JJ73); assay: Displacement of [125I]-labeled rat amylin from rat amylin receptor expressed in BHK tkts13 cell membranes co-expressing RAMP3 incubated for 120 mins by scintillation proximity assay
# T3 sequence (P32214 whole entry): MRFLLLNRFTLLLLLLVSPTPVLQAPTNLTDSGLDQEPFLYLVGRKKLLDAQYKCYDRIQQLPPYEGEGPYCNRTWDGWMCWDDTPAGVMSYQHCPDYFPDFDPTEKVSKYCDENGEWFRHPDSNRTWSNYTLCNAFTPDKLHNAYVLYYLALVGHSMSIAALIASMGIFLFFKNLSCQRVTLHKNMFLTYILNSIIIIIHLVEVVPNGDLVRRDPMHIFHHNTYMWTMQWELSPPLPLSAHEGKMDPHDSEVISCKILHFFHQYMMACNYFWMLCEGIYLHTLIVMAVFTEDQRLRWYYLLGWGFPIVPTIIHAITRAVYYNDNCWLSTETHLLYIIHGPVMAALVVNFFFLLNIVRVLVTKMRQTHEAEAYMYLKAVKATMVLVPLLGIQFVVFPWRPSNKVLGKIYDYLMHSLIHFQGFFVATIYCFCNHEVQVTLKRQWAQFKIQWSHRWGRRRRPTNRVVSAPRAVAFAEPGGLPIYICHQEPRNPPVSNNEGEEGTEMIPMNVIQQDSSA
# T3 sequence (Q9JJ73 whole entry): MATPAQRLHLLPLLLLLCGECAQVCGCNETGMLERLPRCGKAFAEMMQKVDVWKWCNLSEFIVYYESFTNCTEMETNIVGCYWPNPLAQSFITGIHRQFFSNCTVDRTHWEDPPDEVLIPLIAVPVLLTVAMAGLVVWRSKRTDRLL
# [16] = biological target: T1, Amylin receptor AMY3; CALCR/RAMP3; assay: Displacement of [125I]-labeled rat amylin from human amylin receptor expressed in BHK tkts13 whole cells co-expressing RAMP3 incubated for 60 mins by scintillation proximity assay; assay type: cell-based
# [17] = test system: Rattus norvegicus; assay: Reduction in food intake in Sprague-Dawley rat at 3 nmol/kg measured 0 to 24 hrs post dose relative to control; assay type: functional; design: scale not given: the % may be the effect or the level left
# [18] = test system: Rattus norvegicus; assay: Reduction in food intake in Sprague-Dawley rat at 3 nmol/kg measured 24 to 48 hrs post dose relative to control; assay type: functional; design: scale not given: the % may be the effect or the level left
# [19] = Solubility in 100 mM glycylglycine buffer at pH 5.0 incubated for 18 hrs by UPLC analysis; assay type: physicochemical
EC50 [1] [nM],EC50 [2] [nM],EC50 [3] [nM],EC50 [4] [nM],Time [5] [h],remaining at 1 µM [6] [%],solubility at 18 h [7] [µM],solubility at 18 h [8] [µM],solubility at 18 h [9] [µM],solubility at 18 h [10] [µM],solubility at 18 h [11] [µM],solubility at 18 h [12] [µM],solubility at 18 h [13] [µM],IC50 [14] [nM],IC50 [15] [nM],IC50 [16] [nM],solubility at 18 h [19] [µM],SMILES,Activity [17] [%],Activity [18] [%]
0.046,0.037,0.062,0.049,> 45,100,≥ 200,≥ 200,≥ 200,≥ 200,≥ 200,≥ 200,≥ 200,0.113,0.029,–,–,CC(C)C[C@H](NC(=O)[C@H](C)NC(=O)[C@H](C)NC(=O)[C@@H](NC(=O)[C@H](CO)NC(=O)[C@H](CC(C)C)NC(=O)[C@H](CCC(=O)O)NC(=O)[C@H](CO)NC(=O)[C@H](C)NC(=O)CC[C@H](NC(=O)CCCCCCCCCCCCCCCCCCC(=O)O)C(=O)O)[C@@H](C)O)C(=O)NCC(=O)N[C@@H](CCCNC(=N)N)C(=O)N[C@@H](CC(C)C)C(=O)N[C@@H](CO)C(=O)N[C@@H](C)C(=O)N[C@@H](CCC(=O)O)C(=O)N[C@@H](CC(C)C)C(=O)N[C@@H](Cc1cnc[nH]1)C(=O)N[C@@H](CCC(=O)O)C(=O)N[C@@H](CC(C)C)C(=O)N[C@@H](C)C(=O)N[C@H](C(=O)N[C@@H](CC(C)C)C(=O)N1CCC[C@H]1C(=O)N[C@@H](CCCNC(=N)N)C(=O)N[C@H](C(=O)N[C@@H](CCC(=O)O)C(=O)N[C@H](C(=O)NCC(=O)N[C@@H](CO)C(=O)NCC(=O)N[C@@H](CO)C(=O)N[C@@H](Cc1ccc(O)cc1)C(N)=O)[C@@H](C)O)[C@@H](C)O)[C@@H](C)O ({C20 diacid-γGlu}-ASELSTAALGRLSAELHELATLPRTETGSGSY-NH2),–,–
0.017,0.016,0.143,0.108,–,–,≥ 200,–,–,–,≥ 200,≥ 200,≥ 200,0.1,0.046,3.17,–,CC(C)C[C@H](NC(=O)[C@H](CO)NC(=O)[C@H](C)NC(=O)[C@@H](NC(=O)[C@H](CO)NC(=O)[C@H](CC(C)C)NC(=O)[C@H](CCC(=O)O)NC(=O)[C@H](CO)NC(=O)[C@H](C)NC(=O)CC[C@H](NC(=O)CCCCCCCCCCCCCCCCCCC(=O)O)C(=O)O)[C@@H](C)O)C(=O)NCC(=O)N[C@@H](CCCNC(=N)N)C(=O)N[C@@H](CC(C)C)C(=O)N[C@@H](CO)C(=O)N[C@@H](C)C(=O)N[C@@H](CCC(=O)O)C(=O)N[C@@H](CC(C)C)C(=O)N[C@@H](Cc1cnc[nH]1)C(=O)N[C@@H](CCC(=O)O)C(=O)N[C@@H](CC(C)C)C(=O)N[C@@H](CO)C(=O)N[C@H](C(=O)N[C@@H](Cc1ccc(O)cc1)C(=O)N1CCC[C@H]1C(=O)N[C@@H](CCCNC(=N)N)C(=O)N[C@H](C(=O)N[C@@H](CCC(=O)O)C(=O)N[C@H](C(=O)NCC(=O)N[C@@H](CO)C(=O)NCC(=O)N[C@@H](CO)C(=O)N[C@@H](Cc1ccc(O)cc1)C(N)=O)[C@@H](C)O)[C@@H](C)O)[C@@H](C)O ({C20 diacid-γGlu}-ASELSTASLGRLSAELHELSTYPRTETGSGSY-NH2),–,–
0.018,0.015,0.154,0.062,–,–,≥ 200,–,≥ 200,≥ 200,≥ 200,≥ 200,≥ 200,0.651,0.385,–,≥ 200,CC(C)C[C@H](NC(=O)CNC(=O)[C@H](CO)NC(=O)[C@H](C)NC(=O)CC[C@H](NC(=O)CCCCCCCCCCCCCCCCCCC(=O)O)C(=O)O)C(=O)N[C@@H](CO)C(=O)N[C@H](C(=O)N[C@@H](C)C(=O)N[C@H](C(=O)N[C@@H](CC(C)C)C(=O)NCC(=O)N[C@@H](CCCCN)C(=O)N[C@@H](CC(C)C)C(=O)N[C@@H](CO)C(=O)N[C@@H](CCC(N)=O)C(=O)N[C@@H](CCC(=O)O)C(=O)N[C@@H](CC(C)C)C(=O)N[C@@H](Cc1cnc[nH]1)C(=O)N[C@@H](CCC(=O)O)C(=O)N[C@@H](CC(C)C)C(=O)N[C@@H](CCC(N)=O)C(=O)N[C@H](C(=O)N[C@@H](Cc1ccc(O)cc1)C(=O)N1CCC[C@H]1C(=O)N1CCC[C@H]1C(=O)N[C@H](C(=O)N[C@@H](CCC(=O)O)C(=O)N[C@H](C(=O)NCC(=O)N[C@@H](CO)C(=O)NCC(=O)N[C@H](C(=O)N[C@@H](Cc1ccc(O)cc1)C(N)=O)[C@@H](C)O)[C@@H](C)O)[C@@H](C)O)[C@@H](C)O)C(C)C)[C@@H](C)O ({C20 diacid-γGlu}-ASGLSTAVLGKLSQELHELQTYPPTETGSGTY-NH2),8,9
0.016,0.015,0.037,0.05,–,–,–,–,–,–,–,–,–,0.131,1.16,3.7,–,CC(C)C[C@H](NC(=O)[C@H](CCCNC(=N)N)NC(=O)CNC(=O)[C@H](CC(C)C)NC(=O)[C@@H](NC(=O)[C@H](C)NC(=O)[C@@H](NC(=O)[C@H](CO)NC(=O)[C@H](CC(C)C)NC(=O)[C@H](CCC(N)=O)NC(=O)[C@H](CO)NC(=O)[C@H](C)NC(=O)CC[C@H](NC(=O)CCCCCCCCCCCCCCCCCCC(=O)O)C(=O)O)[C@@H](C)O)C(C)C)C(=O)N[C@@H](CO)C(=O)N[C@@H](CCC(N)=O)C(=O)N[C@@H](CCCNC(=N)N)C(=O)N[C@@H](CC(C)C)C(=O)N[C@@H](Cc1cnc[nH]1)C(=O)N[C@@H](CCCNC(=N)N)C(=O)N[C@@H](CC(C)C)C(=O)N[C@@H](CCC(N)=O)C(=O)N[C@H](C(=O)N[C@@H](Cc1ccc(O)cc1)C(=O)N1CCC[C@H]1C(=O)N[C@@H](CCCNC(=N)N)C(=O)N[C@H](C(=O)N[C@@H](CCC(N)=O)C(=O)N[C@H](C(=O)NCC(=O)N[C@@H](CO)C(=O)N[C@@H](CCC(N)=O)C(=O)N[C@H](C(=O)N[C@@H](Cc1ccc(O)cc1)C(N)=O)[C@@H](C)O)[C@@H](C)O)[C@@H](C)O)[C@@H](C)O ({C20 diacid-γGlu}-ASQLSTAVLGRLSQRLHRLQTYPRTQTGSQTY-NH2),–,–
